From patent US8785488B2 (Exelixis Patent Company LLC, priority 2009, dated 2014) come the findings set out here.

Where only a bound is given, the exact number is not on record here.

One assay deals with T1, human TGR5 (h-TGR5) (Homo sapiens, UniProt Q8TDU6).
T1 construct: expressed in transfected cells
T1 sequence (Q8TDU6 1-330): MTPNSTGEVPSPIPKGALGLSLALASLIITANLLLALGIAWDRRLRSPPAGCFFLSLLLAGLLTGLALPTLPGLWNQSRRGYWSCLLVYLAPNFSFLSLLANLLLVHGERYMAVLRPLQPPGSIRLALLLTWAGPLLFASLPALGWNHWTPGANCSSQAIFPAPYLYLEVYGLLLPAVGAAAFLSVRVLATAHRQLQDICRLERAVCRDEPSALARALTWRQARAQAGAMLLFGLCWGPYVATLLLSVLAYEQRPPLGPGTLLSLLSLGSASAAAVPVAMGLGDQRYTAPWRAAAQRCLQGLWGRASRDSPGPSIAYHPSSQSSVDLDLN
Kind of assay: TGR5/CRE-Luciferiase Assay (HEK 293 hTGR5/CRE-Luc cells). The assay is classed as cell-based. The settings on record: h-TGR5 CRE-Luc EC50, Table 1; read-out: CRE-Luc (EC50). The procedure, abridged:
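HEK293 cells stably carrying hTGR5 and a CRE-luciferase reporter were exposed to serially diluted compounds (diluted in DMEM with 5% DMSO) for 6 h. Cells were then lysed in luciferase buffer, luminescence was read, and EC50 values were derived from dose-response curves.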

The target of the next assay is T2, h-TGR5 (Homo sapiens, UniProt Q8TDU6).
T2 construct: expressed in transfected cells
T2 sequence (Q8TDU6 1-330): T1 sequence (Q8TDU6 1-330)
Kind of assay: TGR5 cAMP Assay using Cisbio cAMP Dynamic2 htrf kit (hTGR5CRE-luc HEK 293 cells). The assay is classed as cell-based. The settings on record: h-TGR5 cAMP EC50, Table 1; read-out: cAMP (EC50). How it is done: Compounds were diluted in DPBS with 5% DMSO (8-point serial dilution by half logs) in a 96-well plate and 1 μL was transferred to a 384-well assay plate in quadruplicate. The d2-cAMP and anti-cAMP Ab-cryptate stock solution were prepared as per the instructions in the Cisbio™ (Bedford, Mass.) kit. […] Cells were adjusted to 0.44×10^6 cells/ml followed by addition of IBMX to a final concentration of 0.5 mM. The cells were then mixed with d2-cAMP solution (7.1 mL cells+100 ul d2-cAMP) and 4000 cells (9 μL) were transferred to each well of the 384-well assay plate. Cells without d2-cAMP were added to eight wells as a negative control. The plate was covered and incubated at room temp for 30 min. Then 10 μL of Ab-cryptate solution was added to each well of the assay plate and incubated for 1 hr. The plate was read on an EnVision™ plate reader (Perkin-Elmer, Waltham, Mass.) and the DeltaF value was calculated as per the instructions in the Cisbio™ kit.
In the following tables, EC50 values determined according to the TGR5 cAMP Assay described herein (cAMP); EC50 values determined according to the TGR5/CRE-Luciferiase Assay described herein (CRE-Luc). […] The following compounds in Tables 1 and 2 were made by using procedures described in the above Schemes and Examples, and, where applicable, by making any necessary substitutions of known materials that one skilled in the art would ordinarily understand how to do.

For the compound `COc1cc(C(C)(C)c2cnc(SCc3c(F)cc(N)cc3Cl)n2-c2ccc(F)cc2)ccc1Cl` [3-chloro-4-({[5-{1-[4-chloro-3-(methyloxy)phenyl]-1-methylethyl}-1-(4-fluorophenyl)-1H-imidazol-2-yl]thio}methyl)-5-fluoroaniline], the EC50 on human TGR5 (h-TGR5) and on h-TGR5 was below 0.1 µM each time.

As for `COc1cc(C(C)(C)c2c(C)nc(SCc3c(F)cc(C(=O)O)cc3Cl)n2-c2ccc(F)cc2)ccc1Cl` [3-chloro-4-({[5-{1-[4-chloro-3-(methyloxy)phenyl]-1-methylethyl}-1-(4-fluorophenyl)-4-methyl-1H-imidazol-2-yl]thio}methyl)-5-fluorobenzoic acid], the EC50 at human TGR5 (h-TGR5) was 0.1 to 1 µM; at h-TGR5 it was below 0.1 µM.

In the case of `COc1cc(-n2c(C(C)(C)c3ccc(S(C)(=O)=O)cc3)cnc2SCc2ccc(Cl)c(-c3nnn[nH]3)c2)ccc1F` [5-(2-chloro-5-{[(1-[4-fluoro-3-(methyloxy)phenyl]-5-{1-methyl-1-[4-(methylsulfonyl)phenyl]ethyl}-1H-imidazol-2-yl)thio]methyl}phenyl)-1H-tetrazole], the EC50 on human TGR5 (h-TGR5) and on h-TGR5 was 0.1 to 1 µM in each case.

Consider `COc1ccc(C(C)(C)c2cnc(SCc3ccc(F)cc3Cl)n2-c2ccc(F)cc2)cc1OC` [5-{1-[3,4-bis(methyloxy)phenyl]-1-methylethyl}-2-{[(2-chloro-4-fluorophenyl)methyl]thio}-1-(4-fluorophenyl)-1H-imidazole], for which the EC50 at human TGR5 (h-TGR5) is below 0.1 µM; at h-TGR5 it was 0.1 to 1 µM.

For the compound `CC(C)(c1ccc(Cl)c(OCCCN2CCOCC2)c1)c1cnc(SCc2c(F)cc(C(=O)O)cc2Cl)n1-c1ccc(F)cc1` [3-chloro-4-({[5-(1-{4-chloro-3-[(3-morpholin-4-ylpropyl)oxy]phenyl}-1-methylethyl)-1-(4-fluorophenyl)-1H-imidazol-2-yl]thio}methyl)-5-fluorobenzoic acid], the EC50 at human TGR5 (h-TGR5) and on h-TGR5 was 0.1 to 1 µM throughout.

Consider `CC(C)(c1ccc(Cl)c(Cl)c1)c1cnc(SCc2c(F)cc(C(=O)NCS(=O)(=O)O)cc2F)n1-c1ccc(F)c(Cl)c1` [[({4-[({1-(3-chloro-4-fluorophenyl)-5-[1-(3,4-dichlorophenyl)-1-methylethyl]-1H-imidazol-2-yl}thio)methyl]-3,5-difluorophenyl}carbonyl)amino]methanesulfonic acid], for which the EC50 on human TGR5 (h-TGR5) and on h-TGR5 was below 0.1 µM in each case.

With `COc1cc(C(C)(C)c2cnc(SCc3ccc(S(=O)(=O)NC(=O)NN4CCCC4)cc3Cl)n2-c2ccc(F)c(C)c2)ccc1Cl` [3-chloro-4-({[5-{1-[4-chloro-3-(methyloxy)phenyl]-1-methylethyl}-1-(4-fluoro-3-methylphenyl)-1H-imidazol-2-yl]thio}methyl)-N-[(pyrrolidin-1-ylamino)carbonyl]benzenesulfonamide], the EC50 was below 0.1 µM at human TGR5 (h-TGR5) and 0.1 to 1 µM at h-TGR5.

For `COc1cc(C(C)(C)c2cnc(SCc3ccc(CCCNC(=N)N)c(C(=O)O)c3)n2-c2ccc(F)cc2)ccc1Cl` [2-(3-{[amino(imino)methyl]amino}propyl)-5-({[5-{1-[4-chloro-3-(methyloxy)phenyl]-1-methylethyl}-1-(4-fluorophenyl)-1H-imidazol-2-yl]thio}methyl)benzoic acid], the EC50 on human TGR5 (h-TGR5) is below 0.1 µM; on h-TGR5, 0.1 to 1 µM.

`COc1cc(C(C)(C)c2cnc(SCc3ccc(C#CCNC(=N)N)c(C(=O)O)c3)n2-c2ccc(F)cc2)ccc1Cl` [2-(3-{[amino(imino)methyl]amino}prop-1-yn-1-yl)-5-({[5-{1-[4-chloro-3-(methyloxy)phenyl]-1-methylethyl}-1-(4-fluorophenyl)-1H-imidazol-2-yl]thio}methyl)benzoic acid]: the EC50 on human TGR5 (h-TGR5) and on h-TGR5 was below 0.1 µM throughout.

`CC(C)(c1ccc(Cl)c(Cl)c1)c1cnc(COc2c(F)cc(C(=O)O)cc2Cl)n1-c1ccc(F)cc1`: the EC50 at human TGR5 (h-TGR5) and at h-TGR5 was 0.1 to 1 µM each time.

On to `COc1cc(C(C)(C)c2c(Cl)nc(SCC3CCN(S(C)(=O)=O)CC3)n2-c2ccc(F)cc2)ccc1Cl` [4-({[4-chloro-5-{1-[4-chloro-3-(methyloxy)phenyl]-1-methylethyl}-1-(4-fluorophenyl)-1H-imidazol-2-yl]thio}methyl)-1-(methylsulfonyl)piperidine], for which the EC50 on human TGR5 (h-TGR5) and on h-TGR5 was 0.1 to 1 µM in each case.

Consider `CC(C)NC(=O)NS(=O)(=O)c1ccc(CSc2ncc(C(C)(C)c3ccc(C(F)F)c(F)c3)n2-c2ccc(F)cc2)c(Cl)c1` [3-chloro-4-({[5-{1-[4-(difluoromethyl)-3-fluorophenyl]-1-methylethyl}-1-(4-fluorophenyl)-1H-imidazol-2-yl]thio}methyl)-N-{[(1-methylethyl)amino]carbonyl} benzenesulfonamide], for which the EC50 on human TGR5 (h-TGR5) and at h-TGR5 was 0.1 to 1 µM throughout.

On to `CC(C)(c1ccc(Cl)c(Cl)c1)c1cnc(SCc2ccc(C(=O)O)c(Cl)c2)n1-c1ccc(F)cc1` [2-chloro-4-[({5-[1-(3,4-dichlorophenyl)-1-methylethyl]-1-(4-fluorophenyl)-1H-imidazol-2-yl}thio)methyl]benzoic acid], for which the EC50 at human TGR5 (h-TGR5) and at h-TGR5 was 0.1 to 1 µM in each case.

Consider `COc1cc(C(C)(C)c2cnc(SCc3ccc(S(=O)(=O)NC(=O)NN4CCOCC4)cc3Cl)n2-c2ccc(F)cc2)ccc1Cl` [3-chloro-4-({[5-{1-[4-chloro-3-(methyloxy)phenyl]-1-methylethyl}-1-(4-fluorophenyl)-1H-imidazol-2-yl]thio}methyl)-N-[(morpholin-4-ylamino)carbonyl]benzenesulfonamide], for which the values for the EC50 at human TGR5 (h-TGR5) and on h-TGR5 were 0.1 to 1 µM and below 0.1 µM, respectively.

As for `CC(C)(c1ccc(F)c(F)c1)c1cnc(SCc2ccc(S(=O)(=O)NC(=O)NN3CCCC3)cc2Cl)n1-c1ccc(F)cc1` [3-chloro-4-[({5-[1-(3,4-difluorophenyl)-1-methylethyl]-1-(4-fluorophenyl)-1H-imidazol-2-yl}thio)methyl]-N-[(pyrrolidin-1-ylamino)carbonyl]benzenesulfonamide], the EC50 lay within 0.1 to 1 µM on human TGR5 (h-TGR5) and 1 to 10 µM on h-TGR5.

Turning to `COc1cc(C(C)(C)c2cnc(SCc3c(F)cc(OCCCNC(=N)N)cc3F)n2-c2ccc(F)cc2)ccc1Cl` [1-(3-{[4-({[5-{1-[4-chloro-3-(methyloxy)phenyl]-1-methylethyl}-1-(4-fluorophenyl)-1H-imidazol-2-yl]thio}methyl)-3,5-difluorophenyl]oxy}propyl)guanidine], the EC50 on human TGR5 (h-TGR5) and on h-TGR5 was below 0.1 µM throughout.

In the case of `CC(C)(c1ccc(Cl)c(Cl)c1)c1cnc(SCc2ccc(C(=O)O)cc2F)n1-c1ccc(F)cc1` [4-[({5-[1-(3,4-dichlorophenyl)-1-methylethyl]-1-(4-fluorophenyl)-1H-imidazol-2-yl}thio)methyl]-3-fluorobenzoic acid], the EC50 on human TGR5 (h-TGR5) and at h-TGR5 was 0.1 to 1 µM in each case.

Consider `COc1cc(C(C)(C)c2c(Cl)nc(SCC3CCN(c4nnn[nH]4)CC3)n2-c2ccc(F)cc2)ccc1Cl` [4-({[4-chloro-5-{1-[4-chloro-3-(methyloxy)phenyl]-1-methylethyl}-1-(4-fluorophenyl)-1H-imidazol-2-yl]thio}methyl)-1-(1H-tetrazol-5-yl)piperidine], for which the EC50 at human TGR5 (h-TGR5) is below 0.1 µM; on h-TGR5, 1 to 10 µM.

Regarding `CC(C)(c1ccc(Cl)c(Cl)c1)c1cnc(SCc2ccc(-c3nnn[nH]3)cc2Cl)n1-c1ccc(F)cc1` [5-{3-chloro-4-[({5-[1-(3,4-dichlorophenyl)-1-methylethyl]-1-(4-fluorophenyl)-1H-imidazol-2-yl}thio)methyl]phenyl}-1H-tetrazole], the EC50 on human TGR5 (h-TGR5) and at h-TGR5 was 0.1 to 1 µM throughout.

For the compound `COc1cc(-n2c(C(C)(C)c3ccc(S(N)(=O)=O)c(Cl)c3)cnc2SCc2c(F)cc(C(=O)NCCS(=O)(=O)O)cc2F)ccc1F` [2-{[(4-{[(5-{1-[4-(aminosulfonyl)-3-chlorophenyl]-1-methylethyl}-1-[4-fluoro-3-(methyloxy)phenyl]-1H-imidazol-2-yl)thio]methyl}-3,5-difluorophenyl)carbonyl]amino}ethanesulfonic acid], the EC50 on human TGR5 (h-TGR5) and at h-TGR5 was below 0.1 µM in each case.

As to `COc1ccc(C(C)(C)c2cnc(SCc3c(F)cc(C#N)cc3F)n2-c2ccc(F)cc2)cc1Cl` [4-({[5-{1-[3-chloro-4-(methyloxy)phenyl]-1-methylethyl}-1-(4-fluorophenyl)-1H-imidazol-2-yl]thio}methyl)-3,5-difluorobenzonitrile], the concentration for a half-maximal effect (EC50) at human TGR5 (h-TGR5) and on h-TGR5 was below 0.1 µM throughout.
